Values of other authors as cited in patent US20170313932A1, “SYNTHETIC ACID COMPOSITIONS ALTERNATIVES TO CONVENTIONAL ACIDS IN THE OIL AND GAS INDUSTRY” (FLUID ENERGY GROUP LTD., priority 2014, published 2017).

System: Life and Health

For `Cl` [Hydrogen chloride gas, Hydrogen chloride], the “Level Immediately Dangerous to Life and Health (IDHL)” value is listed as “above 50 PPM” and the “Level at which death can occur” value (gas exposure, death in 2-3 minutes) is listed as 1300-2000 parts per million (PPM).
